Assay results reported in US20130259829A1, “CLIP INHIBITORS AND METHODS OF MODULATING IMMUNE FUNCTION” (The Regents of the University of Colorado, A Body Corporate, priority 2008, published 2013).
No end group written: not given here. *: point of attachment. Biotin = O=C1N[C@H]2[C@H](CS[C@H]2CCCCC(=O)*)N1

What was measured:
[1] = tested on: human B cells from peripheral blood mononuclear cells (PBMC); experiment: Human PBMC culture with toll ligands with or without peptides, CLIP on B cells; assay type: cell-based; conditions: for level of CLIP per B cell / percentage of CLIP+ B cells: PBMC of two donors cultured with R848 for 48 hours
Procedure: PBMC were prepared from a total of seven adult normal donors, five for examining the effects of TLR binding on the percentage of ectopic CLIP^+ B cells and changes in mean fluorescence intensity of the CLIP staining resulting from TLR stimulation with CpG-ODN, LPS, Pam-3-Cys, and Poly I:C. For these experiments, the cells were cultured at approximately 1×10^6 per ml with each TLR binding ligand added at 5 μg per ml. The other two donors were tissue typed for HLA phenotypes, were cultured with the TLR7/8 agonist CL097 for 48 hours with and without the computationally predicted competitive peptide or the scrambled analogue for 48 hours. For both experiments at the end of the appropriate culture period, cells were harvested and stained for cell surface CLIP using anti-human CLIP-FITC versus MHC class II HLA-DR-PE Cy5, or anti-human CLIP-FITC versus anti-human CD19-PE. Cells were analyzed using either a BD FacsCalibur, for the five samples, or a Coulter FC500 for the two tissue typed samples.
(§1) Multi-parameter flow cytometric analysis for the fluorescent detection of ectopic CLIP, mouse B220, human CD19 or CD20, human CLIP, human HLA-DR, and human CLIP or apoptosis were performed using a Beckman Coulter Excel or a Beckman Coulter FC500 flow cytometer (Beckman Coulter, Hialeah, Fla.). Mouse splenic cells were cultured in complete RPMI for the times indicated. Resting, primed, or activated B cells were cultured in the presence of T cells (vide supra). At the end of 16 h of culture, the cells were harvested and washed. Ethidium bromide (detected by red fluorescence) was added immediately before analysis of each tube. The cells were analyzed by first gating using forward vs. side scatter then using increased fluorescence as a measure of detection of the indicated cell surface antigens.
Because CLIP affinity for MHC class II molecules is allele dependent, the MHCPred (http://www.jenner.ac.uk/MHCPred/) and NetMHC (http://www.cbs.dtu.dk/services/NetMHC/) databases was used to determine binding affinities between CLIP for molecules encoded by either mouse or human MHC alleles. […] For human studies, PBMC were collected from donors, most of whose MHC tissue types (alleles for HLA-DR, DP, DQ, HLA-A, and HLA-B) were identified. The cells were cultured in the presence or absence of the TLR7/8-binding compound R848 (CLO97, Invivogen) for 48 hours. The cells were cultured in the presence or absence of VGV-hB peptide versus a control peptide of equal length (referred to henceforth as VGV-pB, whose binding depends upon the MHC allele/polymorphism of the individual) (FIGS. 13d and 13e). […] Considering polymorphic differences in MHC alleles between the two individuals, the ability of a given peptide to replace CLIP may vary as a function of the polymorphism between the two people. Data are representative of five different experiments performed over several months.

[2] = tested on: mouse splenic B cells; experiment: TLR activation of mouse splenocytes in vitro, ectopic CLIP on B cells (15G4-FITC versus B220); assay type: cell-based; conditions: for exogenous CLIP expression on activated mouse B cells: treatment in vitro with toll ligand
Description: Mouse splenocytes or T-depleted splenocytes were red cell depleted using Geys Solution, and cells were counted. For T-depleted B cell preparations, B cells were separated by discontinuous Percoll (Pharmacia LKB Biotechnology, Piscataway, N.J.) gradients (13). Those cells layering at the 1.079/1.085 g/ml interface (1.079<ρ≦1.085) are designated throughout as resting B cells. Cells layering at the BSS/1.066 g/ml interface (ρ≦1.066) are designated as activated. Viable cells from this latter interface were isolated using Lympholyte-M (Cedarlane Laboratories, Ltd., Hornby, Ontario, Canada). Cells from each layer were harvested, washed, and resuspended at 10^7 cells/ml in PBS containing 5% fetal calf serum.
Total splenocytes, from either B6.129, Ii-deficient, or H2M-deficient mice were cultured with LPS for 24, 48, 72, or 96 hours as indicated. Cells were harvested and stained by two-color fluorescence using 15G4-FITC anti-mouse CLIP/I-A^6 versus anti-mouse B220 PE.
Freshly isolated splenocytes, single cell suspensions of lymph node cells, resting (or activated) B cells, or primed B cells were isolated from B6.129, Ii-deficient, or H2M-deficient mice and cultured in 24 well plates in complete RPMI medium, with or without the appropriate Toll ligand, at 10^6 cells/ml. Cells were cultured for 24, 48, 72, 96, or up to 144 hours. Cells were harvested and stained by flow cytometric analysis using either a Beckman Coulter Excel or a Beckman Coulter FC500 flow cytometer. Cells were stained by two-color fluorescence using 15G4-FITC anti-mouse CLIP/I-A^b versus anti-mouse B220 PE. For co-culture experiments (5×10^5) were combined with T cells (5×10^4) in 24 well plates in complete medium, with or without the appropriate antigen. Experiments with 3A9, 2A11 or A6.A2 employed 3 mg/ml tryptic digest of HEL as a source of pre-processed antigen, i.e., peptide. Cultures were incubated overnight at 37° C. in a humidified 5% CO2, 95% air incubator.
as §1

[3] = tested on: human B cell lines, Raji and Daudi; experiment: Synthetic peptide binding and competition with CLIP on B cell lines (anti-human CLIP Fitc versus Streptavidin); assay type: cell-based; conditions: for cell surface bound CLIP (Fitc-Anti-CLIP): biotinylated competing peptide, 50 microMolar
Description: Based on a computational model comparing the peptide content of TNP mixture and identifying those peptides that would have the likeliest ability to compete for the peptide/antigen binding site for MHC class II (human HLA-DR, DP, and DQ), several peptide candidates were synthesized and examined for activity. The purpose of the study was to determine if synthetic peptides can compete for binding with CLIP peptides as measured with either Fitc anti-human CLIP antibody or, comparatively in the case of biotinylated peptides, with Streptavidin.
Cell Culture Conditions: The Raji and Daudi cell lines were purchased from American Type Culture Collection, were thawed, and grown in RPMI 1640 medium supplemented with standard supplements, including 10% fetal calf serum, gentamycin, penicillin, streptomycin, sodium pyruvate, HEPES buffer, 1-glutamine, and 2-ME.
Protocol: Cells were plated into a 12 well plate with 3 mls total volume containing approximately 1.5×10^6/well for Daudi cells and 3.0×10^6/well for Raji cells. Treatment groups included no treatment as control; MKN 3 and MKN 5 at 50 microMolar final concentration based on the reported molarity of the synthesized compounds.
The cells were incubated at 37° C. in an atmosphere containing 5% CO2 and approximately 92% humidity. The cells were incubated for 4 and 24 hours. At each time point, the cells from that experimental time were harvested and stained for flow cytometric analysis of cell surface expression of CLIP (MHC Class II invariant peptide, human) by using the commercially available (Becton/Dickinson/PHarmingen) anti-human CLIP Fitc. Catalogue #555981 versus Streptavidin.
Harvested cells were stained using standard staining procedure that called for a 1:100 dilution of Fitc-anti-human CLIP or isotype control versus 1:200 dilution of the commercially prepared Streptavidin. Following staining on ice for 25 minutes, cells were washed with PBS/FCS and resuspended in 100 microliters and added to staining tubes containing 400 microliters of PBS. Samples were acquired and analyzed on a Coulter Excel Flow Cytometer.
In the Histogram analyses of FIGS. 5-7 the Y axis represents cell number of the 5000 live cells versus the X axis which is a reflection of relative Fitc fluorescence versus Streptavidin-PE (eBioscience, Cat. #12-4317) that will bind with high affinity to cell-bound biotinylated peptides. The distance between the histogram from the isotype control staining versus the histogram reflecting the specific stain and is a measure of level of cell surface CLIP or the biotinylated peptide when stained with Streptavidin on a population of live Raji or Daudi cells as indicated.

[4] = tested on: B6.129 (H-2b) mice; experiment: CpG-ODN injected B6.129 mice with or without peptide (TLR-induced chronic hyperimmune activation); assay type: in vivo, mouse
Procedure: C57Bl6 and B6.129 mice were injected with CpG-oligo-deoxynucleotide (CpG-ODN (25 μg per mouse)). After 24, 72, or 96 hours, animals were humanely killed; spleens and lymph nodes were removed. The spleens and lymph nodes were passed through nylon mesh to recover single cell suspensions, and the cells were counted. Cells were stained as indicated and analyzed flow cytometrically using a Beckman Coulter Excel or Coulter FC500 flow cytometer.
as §1
Cell death was measured either by flow cytometric detection of forward versus side scatter or by DNA fragmentation. DNA fragmentation was quantified by terminal deoxynucleotidyl transferase (TdT; Promega, Madison, Wis.)-mediated fluorescein-12-deoxyuridine triphosphate (FITC-dUTP; Boehinger Mannheim Corporation, Indianapolis, Ind.) addition to the terminal 3′-OH ends of fragmented DNA (TUNEL assay) as previously described (18). Resting B cells (1×10^6) were combined with 1×10^5 T hybridoma cells, with or without antigen, and cultured for 16-17 h. The cultures were harvested and washed twice in PBS-2% FBS at 4° C. Subsequently, cells were incubated for 30 min at 4° C. in PBS-2% FBS […] Cells were washed in PBS and fixed in 1.5% paraformaldehyde in PBS (pH 7.4) for 1 h at 4° C. Cells were thoroughly washed in PBS and were resuspended in 50 μl of a reaction mixture containing the following: 5 units TdT, 0.1-0.2 nM FITC-dUTP and 1 nM each dATP, dCTP, and dGTP in 100 mM cacodylate buffer (pH 6.8) with 1 mM CoCl2 and 0.1 mg/ml BSA. Reactions were incubated for 1 h at 37° C. and stopped by washing with 0.25 M EDTA in Tris buffer (pH 7.4). Cells were then analyzed for two color fluorescence on the FC500.
Using mouse models for quantitative analysis of TLR-induced CHA, B6.129 (H-2^b) mice were injected with CpG-ODN alone or CpG-ODN in combination with VGV-hB. […] Because the binding constant of a peptide is also function of concentration, B6.129 mice were injected with peptide; either VGV-hB or VGV-sB, ranging in dose from 0.25, 2.5, 25, and 50 micrograms of peptide per mouse, (FIGS. 14c and 14d).

[5] = tested on: B6.129 (H-2b) mice; experiment: as above; assay type: in vivo, mouse; conditions: CpG-ODN alone or with peptide, 48 hours
[6] = tested on: B cell surface CLIP; experiment: B cell surface CLIP after 2-Deoxyglucose and dichloroacetate (FIG. 4); assay type: cell-based
[7] = background statement; cited from earlier work
[8] = peptide in combination with TLR 9 stimulation (CpG-ODN)

ANSGIIGDITEEVGGQY [VGV-pB]
level of CLIP per B cell [1]: reduced the frequency of CLIP^+ B cells and the level of CLIP per cell in one individual but not the other | percentage of CLIP+ B cells [1]: reduced the frequency of CLIP^+ B cells and the level of CLIP per cell in one individual but not the other

CCOCc1nc2c(N)nc3ccccc3c2n1CC(C)(C)O [R848, imidazoquinoline resiquimod]
exogenous CLIP expression on activated mouse B cells [2]: resulted in exogenous CLIP expression

polyinosinic:polycytidylic acid [Poly I:C]
exogenous CLIP expression on activated mouse B cells [2]: resulted in exogenous CLIP expression

FRIMAVLASSGGGANSGFRIMAVLASGGQY [MKN.3]
cell surface bound CLIP (Fitc-Anti-CLIP) ([3]; 4 hours): small decreases | cell surface bound CLIP (Fitc-Anti-CLIP) ([3]; 24 hours): significant decreases

FRIMAVLAS [VGV-hB]
level of CLIP per B cell [1]: reduced the percentage of CLIP^+ B cells and the level of CLIP per B cell to pre-treatment levels | percentage of CLIP+ B cells [1]: reduced the percentage of CLIP^+ B cells and the level of CLIP per B cell to pre-treatment levels | reversal of CpG-ODN activation incl. percent of CLIP+ B cells from total spleen (peptide titration) ([4]; 0.25, 2.5, 25, and 50 micrograms of peptide per mouse): reversed the effecs of CpG-ODN activation | CD4+ FoxP3+ Tregs in the lymph nodes ([4]; CpG-ODN injection in vivo, without or with peptide): reversible | effect of CpG-ODN on total cell numbers, absolute numbers of B cells, and CLIP+ B cell distribution between spleen and lymph node ([4]; CpG-ODN with peptide, 24, 72, 96 hours): reduced | CD8+ T cells ([4]; CpG-ODN with peptide, interpretation in discussion): promotes expansion | B cell death [4, 8]: increased B cell death | number of live CD4+ T cells [4, 8]: moderate increase | splenic B lymphocytes and splenic CLIP+ B cells [5]: reversed the effects of CPG alone

O=CC[C@@H](O)[C@H](O)[C@H](O)CO [2-Deoxyglucose]
B cell surface CLIP [6]: affects B cell surface CLIP

SGGGSKMRMATPLLMQALY (Biotin-SGGGSKMRMATPLLMQALY) [MKN.1]
cell surface CLIP and CD74 levels ([3]; Raji or Daudi cells): alters cell surface CLIP and CD74 levels

(S)-(2,3-bis(palmitoyloxy)-(2RS)-propyl)-N-palmitoyl-(R)-Cys-(S)-Ser(S)-Lys4-OH, trihydrochloride [Pam3Cys]
exogenous CLIP expression on activated mouse B cells [2]: resulted in exogenous CLIP expression

SGGGKALVQNDTLLQVKG (not fully specified (N-terminus); also: biotinylated, position not given here) [MKN.5]
cell surface bound CLIP (Fitc-Anti-CLIP) ([3]; 4 hours): small decreases | cell surface bound CLIP (Fitc-Anti-CLIP) ([3]; 24 hours): significant decreases

lipopolysaccharide [LPS]
exogenous CLIP associated with MHC class II on splenic B cells ([2]; in vitro stimulation of resting mouse splenocytes, 0 to 72 hours): time-dependent increase | exogenous CLIP expression on activated mouse B cells [2]: resulted in exogenous CLIP expression | ectopic CLIP on human B cells ([1]; PBMC from five healthy donors, toll ligand 5 ug per ml, 24 hours): Statistically significant increases

C=CC[C@@H]1/C=C(\C)C[C@H](C)C[C@H](OC)[C@H]2O[C@@](O)(C(=O)C(=O)N3CCCC[C@H]3C(=O)O[C@H](/C(C)=C/[C@@H]3CC[C@@H](O)[C@H](OC)C3)[C@H](C)[C@@H](O)CC1=O)[C@H](C)C[C@@H]2OC [FK506, tacrolimus]
immunosuppressive activity relative to cyclosporin [7]: 10-100 times
